Consider 1 compound from patent publication US7417048B2, “Aryl-substituted derivatives of cycloalkyl and branched chain alkyl carboxylic acids useful as antinociceptive drugs for peripheral targets” (priority 2003, dated 2008).

In one experiment the target is TRP-M8 coolness receptor (Homo sapiens, UniProt Q7Z2W7). As to the kind of experiment: TRP-M8 coolness receptor activation (summary statement). Format: cell-based. On the procedure:
(§1) Human embryonic kidney cells were transiently transfected with the gene for the mouse TRP-M8 receptor. These cells were then voltage patch-clamped in a standard microscopic apparatus and the test solution electronically applied for 10 sec. The integrated areas of the inward current, measured in picoAmperes were then recorded. Icilin a standard cooling antinociceptive agent was used the positive control. Test substances were applied at 1 μM to at least 4 cells and the current recorded.
Human embryonic kidney cells were permanently transfected with the gene for the human TRP-M8 receptor. These cells were then incubated with a calcium fluorescence indicator (Fura-2) and incubated at either 29 or 37° C. These cells were then distributed into a 96-well fluorescence-plate image reader with automated drug dilution and computerized software for dose-response analysis. The influx of calcium upon drug stimulated was quantified in fluorescence units. […] The EC50 of CPS-125 in this test system was 6 μM and for the sulfodimethoxinyl- derivative, it was 60 μM.

Another experiment deals with TRP-A1 (Homo sapiens, UniProt O75762). As to the kind of experiment: TRP-A1 activation. Format: cell-based.
For the next experiment, the target named is T1, human TRP-M8 receptor (Homo sapiens, UniProt Q7Z2W7).
T1 construct: expressed in transfected cells; host or cells: human embryonic kidney cells (permanent transfection)
As to the kind of experiment: Fura-2 calcium fluorescence in HEK cells permanently transfected with human TRP-M8. Format: cell-based. The following applies: Fura-2 fluorescence units. On the procedure:
Human embryonic kidney cells were permanently transfected with the gene for the human TRP-M8 receptor. These cells were then incubated with a calcium fluorescence indicator (Fura-2) and incubated at either 29 or 37° C. These cells were then distributed into a 96-well fluorescence-plate image reader with automated drug dilution and computerized software for dose-response analysis. The influx of calcium upon drug stimulated was quantified in fluorescence units.

Another experiment concerns the target T2, mouse TRP-M8 receptor (Mus musculus, UniProt Q8R4D5).
T2 construct: expressed in transfected cells; host or cells: human embryonic kidney cells (transient transfection)
As to the kind of experiment: Voltage patch-clamp of HEK cells transiently transfected with mouse TRP-M8. Format: cell-based. On the procedure: as §1
Background: Patch clamp records ionic current or voltage across a cell membrane.

The subject of experiment [1] is lips and nasal mucous membranes. As to the kind of experiment: Cooling effect of suspension applied to lips and nasal mucous membranes. The format is in vivo, human. The source says: Sulfadiazine is used as antibiotic for urinary tract infections and its silver salt is also used a topical antibiotic for the treatment of burn wounds. One peripheral antinociceptive compound of this discovery is derived from sulfadiazine as the -ZR″ group, and has the structure illustrated by Formula 3. […] The embodiment, coded as CPS-125, also activated the TRP-M8 coolness receptor, but not TRP-A1. […] Sulfonamides are used as topical and systemic antibiotics. Generally, these drugs are used at doses of 500 mg to gram quantities, and have relatively low toxic side effects except for the risks of renal crystalluria and drug hypersensitivity reactions. […] (St. Louis, Mo.) and coupled to p-menthoyl chloride, using the chemical synthesis described above. Each compound was then tested at 20 mg/ml on the lips and nasal mucous membranes. The compounds were added to sterile saline-10% Tween 80 mixture and stirred using a glass rod until the mixture was a homogeneous suspension. Using a clean glass rod, the suspension was first applied to the lips and nasal vestibule. After this trial, a dropper was used to apply the suspension into the nostrils, at a volume of 0.06 ml in 2 droplets per nostril.

pEC50: −log10 of the molar value.

T2 sequence (Q8R4D5 whole entry): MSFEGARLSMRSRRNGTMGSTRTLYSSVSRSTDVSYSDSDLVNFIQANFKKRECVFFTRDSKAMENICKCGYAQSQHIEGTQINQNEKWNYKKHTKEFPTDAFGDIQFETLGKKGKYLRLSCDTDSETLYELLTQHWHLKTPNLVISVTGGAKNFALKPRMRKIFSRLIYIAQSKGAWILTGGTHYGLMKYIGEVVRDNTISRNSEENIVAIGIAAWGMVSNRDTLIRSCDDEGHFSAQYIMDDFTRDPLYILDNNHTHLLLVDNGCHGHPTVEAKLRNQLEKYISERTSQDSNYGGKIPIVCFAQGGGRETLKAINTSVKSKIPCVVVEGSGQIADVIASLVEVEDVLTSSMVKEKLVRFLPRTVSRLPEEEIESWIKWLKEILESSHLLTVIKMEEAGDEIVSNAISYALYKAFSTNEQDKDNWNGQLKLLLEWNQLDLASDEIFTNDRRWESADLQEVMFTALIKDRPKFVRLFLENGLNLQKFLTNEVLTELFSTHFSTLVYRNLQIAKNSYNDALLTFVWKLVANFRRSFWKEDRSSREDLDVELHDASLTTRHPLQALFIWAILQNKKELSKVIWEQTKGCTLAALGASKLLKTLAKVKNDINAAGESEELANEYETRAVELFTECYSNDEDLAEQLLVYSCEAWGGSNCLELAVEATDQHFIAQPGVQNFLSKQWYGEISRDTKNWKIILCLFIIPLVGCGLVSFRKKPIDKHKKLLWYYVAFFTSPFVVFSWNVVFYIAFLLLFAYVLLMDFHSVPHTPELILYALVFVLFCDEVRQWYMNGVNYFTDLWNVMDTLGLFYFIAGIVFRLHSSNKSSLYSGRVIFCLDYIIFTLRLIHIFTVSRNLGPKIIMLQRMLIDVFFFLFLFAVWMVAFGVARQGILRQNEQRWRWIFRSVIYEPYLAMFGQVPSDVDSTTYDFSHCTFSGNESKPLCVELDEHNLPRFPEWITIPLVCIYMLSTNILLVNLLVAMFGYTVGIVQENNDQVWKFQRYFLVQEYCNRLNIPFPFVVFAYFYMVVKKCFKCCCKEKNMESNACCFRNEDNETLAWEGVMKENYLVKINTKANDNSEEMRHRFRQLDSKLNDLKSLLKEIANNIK
TRP-A1, sequence (O75762 whole entry, species assumed): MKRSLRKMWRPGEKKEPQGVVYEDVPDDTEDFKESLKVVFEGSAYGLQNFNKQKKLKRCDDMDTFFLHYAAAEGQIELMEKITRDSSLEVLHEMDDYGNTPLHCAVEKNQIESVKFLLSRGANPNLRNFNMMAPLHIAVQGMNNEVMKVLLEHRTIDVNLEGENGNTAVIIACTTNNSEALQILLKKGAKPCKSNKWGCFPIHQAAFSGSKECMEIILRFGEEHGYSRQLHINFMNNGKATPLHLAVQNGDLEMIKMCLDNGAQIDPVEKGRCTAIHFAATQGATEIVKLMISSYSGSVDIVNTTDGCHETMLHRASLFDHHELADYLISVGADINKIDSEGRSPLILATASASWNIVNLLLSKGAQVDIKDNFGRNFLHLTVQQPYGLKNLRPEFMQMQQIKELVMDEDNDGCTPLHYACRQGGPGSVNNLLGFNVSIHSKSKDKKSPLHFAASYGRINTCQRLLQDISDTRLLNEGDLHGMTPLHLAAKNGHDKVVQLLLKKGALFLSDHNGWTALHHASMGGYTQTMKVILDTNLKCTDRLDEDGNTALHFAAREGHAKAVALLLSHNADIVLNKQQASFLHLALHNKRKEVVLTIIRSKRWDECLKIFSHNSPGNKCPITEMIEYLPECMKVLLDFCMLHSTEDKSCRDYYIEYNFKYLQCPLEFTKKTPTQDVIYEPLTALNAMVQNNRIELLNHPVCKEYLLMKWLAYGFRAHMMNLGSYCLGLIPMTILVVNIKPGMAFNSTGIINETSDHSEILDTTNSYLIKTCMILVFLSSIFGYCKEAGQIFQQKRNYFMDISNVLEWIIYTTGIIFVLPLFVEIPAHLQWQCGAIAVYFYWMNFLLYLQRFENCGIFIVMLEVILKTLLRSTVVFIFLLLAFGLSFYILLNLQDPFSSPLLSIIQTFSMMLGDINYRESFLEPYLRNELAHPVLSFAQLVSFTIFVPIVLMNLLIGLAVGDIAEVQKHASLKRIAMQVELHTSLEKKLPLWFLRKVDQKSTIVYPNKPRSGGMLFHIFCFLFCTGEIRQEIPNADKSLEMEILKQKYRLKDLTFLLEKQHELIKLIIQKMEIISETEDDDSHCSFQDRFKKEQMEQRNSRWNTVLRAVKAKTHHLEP
T1 sequence (Q7Z2W7 whole entry): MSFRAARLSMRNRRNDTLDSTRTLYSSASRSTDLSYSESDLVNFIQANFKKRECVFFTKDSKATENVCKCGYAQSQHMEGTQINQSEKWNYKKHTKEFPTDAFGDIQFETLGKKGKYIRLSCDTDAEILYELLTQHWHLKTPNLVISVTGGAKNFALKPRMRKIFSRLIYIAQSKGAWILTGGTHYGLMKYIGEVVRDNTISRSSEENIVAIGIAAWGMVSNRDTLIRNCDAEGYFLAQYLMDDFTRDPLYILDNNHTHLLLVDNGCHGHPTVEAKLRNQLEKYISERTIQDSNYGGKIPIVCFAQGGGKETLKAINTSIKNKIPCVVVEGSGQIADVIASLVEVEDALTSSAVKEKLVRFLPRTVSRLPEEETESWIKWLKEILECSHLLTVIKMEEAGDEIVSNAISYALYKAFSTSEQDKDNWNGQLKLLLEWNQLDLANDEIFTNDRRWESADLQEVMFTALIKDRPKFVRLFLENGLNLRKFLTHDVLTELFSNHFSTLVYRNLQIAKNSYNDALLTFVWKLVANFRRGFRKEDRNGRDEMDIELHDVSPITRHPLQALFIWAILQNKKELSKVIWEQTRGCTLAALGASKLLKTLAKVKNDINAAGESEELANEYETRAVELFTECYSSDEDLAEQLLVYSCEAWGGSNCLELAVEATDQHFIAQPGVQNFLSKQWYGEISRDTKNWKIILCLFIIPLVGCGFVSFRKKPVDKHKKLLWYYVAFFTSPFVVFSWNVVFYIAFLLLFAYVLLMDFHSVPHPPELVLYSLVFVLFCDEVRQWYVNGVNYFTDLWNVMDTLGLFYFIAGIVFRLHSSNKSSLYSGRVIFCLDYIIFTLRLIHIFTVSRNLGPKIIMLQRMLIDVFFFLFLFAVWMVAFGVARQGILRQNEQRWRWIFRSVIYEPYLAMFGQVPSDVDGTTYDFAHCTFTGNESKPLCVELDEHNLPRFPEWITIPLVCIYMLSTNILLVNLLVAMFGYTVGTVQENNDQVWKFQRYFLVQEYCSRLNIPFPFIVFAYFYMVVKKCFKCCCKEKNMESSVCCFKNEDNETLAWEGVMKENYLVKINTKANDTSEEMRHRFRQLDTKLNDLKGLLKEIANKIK
TRP-M8 coolness receptor, sequence (Q7Z2W7 whole entry): as above

`CC1CCC(C(C)C)C(C(=O)Nc2ccc(S(=O)(=O)Nc3ncccn3)cc2)C1` (stereo not shown) [CPS-125, 2-Isopropyl-5-methyl-cyclohexanecarboxylic acid [4-(pyrimidin-2-ylsulfamoyl)-phenyl]-amide]: the “activation of TRP-M8 coolness receptor” value on TRP-M8 coolness receptor was “activated”. Further, the “activation of TRP-A1” value at TRP-A1 is “not”. Further, the “ΔFmax (maximum fluorescence increase at the maximum concentration tested)” value at human TRP-M8 receptor was 14,000 units. At mouse TRP-M8 receptor (1 μM, applied 10 sec, at least 4 cells), the “activity relative to icilin (integrated inward current, icilin as 100)” value stood at 41%. The negative logarithm of the EC50 (pEC50) at mouse TRP-M8 receptor (patch-clamp dose-response, read-out: EC50 for full activation of the receptor) is 5.70. In addition, in experiment [1] (1 mg per nostril, 0.06 ml in 2 droplets per nostril), the “duration of cooling effect” value is listed as “up to 3 hr”. Also, the “cooling effect on the lips and on breathing sensation” value in experiment [1] (20 mg/ml suspension in saline-10% Tween 80, lips and nasal mucous membranes) is listed as “gentle, cooling refreshing effect”.

As usually defined, the pEC50 is the EC50 on a negative log10 scale, so that one unit is a factor of ten.
